Data published in PubChem BioAssay AID256 (DTP/NCI, 2004).
Several values for one entry are separate records, joined by “and”; a condition that tells them apart may be missing. Identical values can stand only once. Toxic doses and inconclusive results are not listed.

System: CD2F1 mice, L1210 leukemia ip, survival T/C
Assay: NCI In Vivo Anticancer Drug Screen. Data for tumor model L1210 Leukemia (intraperitoneal) in CD2F1 (CDF1) mice
Settings: higher = longer survival
Summary of the method: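 Transplantable tumor in mice; compound-treated vs vehicle-treated groups. Read-out = treated/control ratio of the measured endpoint.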

[1] = endpoint: mean survival time, dose: 100.0 mg/kg/injection, schedule: Q01DX001 (ip), vehicle: saline
[2] = endpoint: mean survival time, dose: 12.5 mg/kg/injection, schedule: Q01DX009 (ip), vehicle: saline with Tween-80
[3] = endpoint: mean survival time, dose: 25.0 mg/kg/injection, schedule: Q01DX009 (ip), vehicle: saline with Tween-80
[4] = endpoint: mean survival time, dose: 50.0 mg/kg/injection, schedule: Q01DX009 (ip), vehicle: saline with Tween-80
[5] = endpoint: mean survival time, dose: 100.0 mg/kg/injection, schedule: Q01DX009 (ip), vehicle: saline with Tween-80
[6] = endpoint: mean survival time, dose: 100.0 mg/kg/injection, schedule: Q04DX002 (ip), vehicle: saline with Tween-80
[7] = endpoint: mean survival time, dose: 100.0 mg/kg/injection, schedule: Q04DX003 (ip), vehicle: saline with Tween-80
[8] = endpoint: mean survival time, dose: 200.0 mg/kg/injection, schedule: Q01DX009 (ip), vehicle: saline with Tween-80
[9] = endpoint: mean survival time, dose: 200.0 mg/kg/injection, schedule: Q04DX002 (ip), vehicle: saline with Tween-80
[10] = endpoint: mean survival time, dose: 200.0 mg/kg/injection, schedule: Q04DX003 (ip), vehicle: saline with Tween-80
[11] = endpoint: mean survival time, dose: 400.0 mg/kg/injection, schedule: Q01DX009 (ip), vehicle: saline with Tween-80
[12] = endpoint: mean survival time, dose: 400.0 mg/kg/injection, schedule: Q04DX002 (ip), vehicle: saline with Tween-80
[13] = endpoint: mean survival time, dose: 400.0 mg/kg/injection, schedule: Q04DX003 (ip), vehicle: saline with Tween-80

CCN=C(N)/N=C(\N)C(Cl)(Cl)Cl
T/C [1]: 101 % of control | T/C (endpoint: mean survival time, dose: 200.0 mg/kg/injection, schedule: Q01DX001 (ip), vehicle: saline): 96 % of control | T/C (endpoint: mean survival time, dose: 400.0 mg/kg/injection, schedule: Q01DX001 (ip), vehicle: saline): 90 % of control

O=C(CBr)c1cccc(OC(=O)c2ccccc2)c1
T/C [2]: 100 % of control | T/C (endpoint: mean survival time, dose: 12.5 mg/kg/injection, schedule: Q04DX003 (ip), vehicle: saline with Tween-80): 107 % of control | T/C [3]: 100 % of control | T/C (endpoint: mean survival time, dose: 25.0 mg/kg/injection, schedule: Q04DX003 (ip), vehicle: saline with Tween-80): 102 % of control | T/C (endpoint: mean survival time, dose: 50.0 mg/kg/injection, schedule: Q04DX003 (ip), vehicle: saline with Tween-80): 113 % of control

CC(=O)Nc1cccc([N+](=O)[O-])c1
T/C (endpoint: mean survival time, dose: 100.0 mg/kg/injection, schedule: Q04DX003 (ip), vehicle: Klucel (hydroxypropylcellulose) (HPC)): 94 % of control | T/C (endpoint: mean survival time, dose: 200.0 mg/kg/injection, schedule: Q04DX003 (ip), vehicle: Klucel (hydroxypropylcellulose) (HPC)): 97 % of control

NC(=S)N=Nc1c(O)cc(O)c2[nH]c(=O)ccc12
T/C [1]: 109 % of control

Cc1c(N)ccc(O)c1C
T/C [2]: 98 % of control | T/C [3]: 97 % of control | T/C [4]: 92 % of control

CCOC(=O)c1ccc(NC(=O)CCOc2ccccc2)cc1
T/C [5]: 92 % of control and 101 % of control | T/C [6]: 91 % of control | T/C [7]: 86 % of control | T/C [8]: 92 % of control and 96 % of control | T/C [9]: 86 % of control and 87 % of control | T/C [10]: 86 % of control | T/C [11]: 89 % of control and 95 % of control | T/C [12]: 94 % of control

CC(C)(C)C1CCC(S(=O)c2ccc([N+](=O)[O-])cc2[N+](=O)[O-])CC1 (stereo unspecified)
T/C [5]: 90 % of control | T/C [7]: 94 % of control | T/C [8]: 91 % of control | T/C [10]: 98 % of control | T/C [11]: 86 % of control | T/C [13]: 88 % of control

Cn1c(=O)c2c(ncn2C)n(C)c1=O.[Cl][Pt]([Cl])[Cl]
T/C (endpoint: mean survival time, dose: 3.13 mg/kg/injection, schedule: Q04DX003 (ip), vehicle: saline): 112 % of control | T/C (endpoint: mean survival time, dose: 3.13 mg/kg/injection, schedule: Q04DX003 (ip), vehicle: water): 98 % of control | T/C (endpoint: mean survival time, dose: 6.25 mg/kg/injection, schedule: Q04DX003 (ip), vehicle: saline): 104 % of control | T/C (endpoint: mean survival time, dose: 6.25 mg/kg/injection, schedule: Q04DX003 (ip), vehicle: water): 95 % of control | T/C (endpoint: mean survival time, dose: 12.5 mg/kg/injection, schedule: Q04DX003 (ip), vehicle: saline): 106 % of control | T/C (endpoint: mean survival time, dose: 12.5 mg/kg/injection, schedule: Q04DX003 (ip), vehicle: water): 104 % of control | T/C (endpoint: mean survival time, dose: 25.0 mg/kg/injection, schedule: Q04DX003 (ip), vehicle: saline): 102 % of control | T/C (endpoint: mean survival time, dose: 25.0 mg/kg/injection, schedule: Q04DX003 (ip), vehicle: water): 102 % of control | T/C (endpoint: mean survival time, dose: 50.0 mg/kg/injection, schedule: Q04DX003 (ip), vehicle: saline): 106 % of control | T/C (endpoint: mean survival time, dose: 50.0 mg/kg/injection, schedule: Q04DX003 (ip), vehicle: water): 104 % of control | T/C (endpoint: mean survival time, dose: 100.0 mg/kg/injection, schedule: Q04DX003 (ip), vehicle: saline): 112 % of control | T/C (endpoint: mean survival time, dose: 100.0 mg/kg/injection, schedule: Q04DX003 (ip), vehicle: water): 118 % of control | T/C (endpoint: mean survival time, dose: 200.0 mg/kg/injection, schedule: Q04DX003 (ip), vehicle: saline): 111 % of control

CC(Br)C1(c2ccccc2)OCCO1 (stereo unspecified)
T/C (endpoint: mean survival time, dose: 100.0 mg/kg/injection, schedule: Q01DX001 (ip), vehicle: saline with Tween-80): 100 % of control | T/C [5]: 114 % of control | T/C [7]: 104 % of control | T/C (endpoint: mean survival time, dose: 200.0 mg/kg/injection, schedule: Q01DX001 (ip), vehicle: saline with Tween-80): 94 % of control | T/C [10]: 111 % of control | T/C (endpoint: mean survival time, dose: 400.0 mg/kg/injection, schedule: Q01DX001 (ip), vehicle: saline with Tween-80): 102 % of control | T/C [13]: 101 % of control

CC(=O)OCC1(C)NC(=O)c2ccccc2O1 (stereo unspecified)
T/C [2]: 93 % of control and 112 % of control | T/C [3]: 93 % of control and 101 % of control | T/C [4]: 98 % of control and 103 % of control | T/C [5]: 118 % of control and 100 % of control | T/C [8]: 95 % of control and 106 % of control | T/C [11]: 115 % of control

NC(=O)CNC1=C(N2CC2)C(=O)C(NCC(N)=O)=C(N2CC2)C1=O
T/C (endpoint: mean survival time, dose: 5.0 mg/kg/injection, schedule: Q01DX009 (ip), vehicle: saline): 172 % of control | T/C (endpoint: mean survival time, dose: 10.0 mg/kg/injection, schedule: Q01DX009 (ip), vehicle: saline): 180 % of control and 192 % of control | T/C (endpoint: mean survival time, dose: 15.0 mg/kg/injection, schedule: Q01DX009 (ip), vehicle: saline): 91 % of control

CC[C@]1(O)C[C@H]2CN(CCc3c([nH]c4ccccc34)[C@@](C(=O)OC)(c3cc4c(cc3OC)N(C)[C@H]3[C@@](O)(C(=O)OC)[C@H](OC(C)=O)[C@]5(CC)C=CCN6CC[C@]43[C@@H]65)C2)C1
T/C (endpoint: mean survival time, dose: 0.03 mg/kg/injection, schedule: Q01DX009 (ip), vehicle: water): 92 % of control | T/C (endpoint: mean survival time, dose: 0.06 mg/kg/injection, schedule: Q01DX009 (ip), vehicle: water): 97 % of control | T/C (endpoint: mean survival time, dose: 0.13 mg/kg/injection, schedule: Q01DX009 (ip), vehicle: water): 95 % of control | T/C (endpoint: mean survival time, dose: 0.25 mg/kg/injection, schedule: Q01DX007 (ip), vehicle: water): 120 % of control | T/C (endpoint: mean survival time, dose: 0.5 mg/kg/injection, schedule: Q04DX003 (ip), vehicle: water): 120 % of control | T/C (endpoint: mean survival time, dose: 1.0 mg/kg/injection, schedule: Q01DX007 (ip), vehicle: water): 91 % of control | T/C (endpoint: mean survival time, dose: 1.0 mg/kg/injection, schedule: Q01DX009 (ip), vehicle: saline): 90 % of control and 91 % of control | T/C (endpoint: mean survival time, dose: 1.0 mg/kg/injection, schedule: Q01DX009 (ip), vehicle: water): 86 % of control | T/C (endpoint: mean survival time, dose: 1.0 mg/kg/injection, schedule: Q04DX003 (ip), vehicle: water): 120 % of control | T/C (endpoint: median survival time, dose: 0.83 mg/kg/injection, schedule: Q01DX009 (ip), vehicle: saline): 110 % of control | T/C (endpoint: median survival time, dose: 1000.0 micrograms/kg/injection, schedule: Q01DX009 (ip), vehicle: saline): 98 % of control

CCCCCCCCCCCCCCCC(=O)Nc1c(C)cc(C)cc1C
T/C [6]: 103 % of control | T/C [9]: 111 % of control | T/C [12]: 91 % of control

O=C1c2c(Cl)c(Cl)c(Cl)c(Cl)c2C(=O)N1O
T/C [7]: 98 % of control | T/C [8]: 98 % of control | T/C [10]: 98 % of control | T/C [13]: 101 % of control

Cn1c2nc3ccccc3c-2nc2ccccc21
T/C (endpoint: mean survival time, dose: 1.56 mg/kg/injection, schedule: Q01DX009 (ip), vehicle: water): 100 % of control | T/C (endpoint: mean survival time, dose: 3.13 mg/kg/injection, schedule: Q01DX009 (ip), vehicle: water): 93 % of control | T/C (endpoint: mean survival time, dose: 6.25 mg/kg/injection, schedule: Q01DX009 (ip), vehicle: water): 88 % of control | T/C (endpoint: mean survival time, dose: 12.5 mg/kg/injection, schedule: Q01DX009 (ip), vehicle: water): 89 % of control | T/C (endpoint: mean survival time, dose: 25.0 mg/kg/injection, schedule: Q01DX009 (ip), vehicle: Klucel (hydroxypropylcellulose) (HPC)): 101 % of control | T/C (endpoint: mean survival time, dose: 25.0 mg/kg/injection, schedule: Q01DX009 (ip), vehicle: water): 86 % of control and 89 % of control | T/C (endpoint: mean survival time, dose: 50.0 mg/kg/injection, schedule: Q01DX009 (ip), vehicle: Klucel (hydroxypropylcellulose) (HPC)): 103 % of control | T/C (endpoint: mean survival time, dose: 100.0 mg/kg/injection, schedule: Q01DX009 (ip), vehicle: Klucel (hydroxypropylcellulose) (HPC)): 105 % of control | T/C (endpoint: mean survival time, dose: 200.0 mg/kg/injection, schedule: Q01DX009 (ip), vehicle: Klucel (hydroxypropylcellulose) (HPC)): 95 % of control

O=C(O)c1c2c(nc3ccccc13)-c1ccccc1C1(CCCC1)C2
T/C [7]: 92 % of control | T/C [10]: 99 % of control

CC(=O)OC1CC2CC(O)(C(=O)CO)CC2C2CCC3=CC(=O)CC3C(C)(O)C12 (stereo unspecified)
T/C (endpoint: mean survival time, dose: 75.0 mg/kg/injection, schedule: Q01DX001 (ip), vehicle: saline): 91 % of control | T/C (endpoint: mean survival time, dose: 150.0 mg/kg/injection, schedule: Q01DX001 (ip), vehicle: saline): 96 % of control | T/C (endpoint: mean survival time, dose: 300.0 mg/kg/injection, schedule: Q01DX001 (ip), vehicle: saline): 95 % of control

CC(C)OC(=O)Nc1ccccn1
T/C [6]: 100 % of control | T/C [9]: 100 % of control | T/C [12]: 104 % of control

CC1CNC(=S)O1 (stereo unspecified)
T/C [3]: 102 % of control | T/C [4]: 100 % of control | T/C [5]: 97 % of control and 103 % of control | T/C [7]: 100 % of control | T/C [8]: 97 % of control and 95 % of control | T/C [10]: 97 % of control | T/C [11]: 97 % of control and 106 % of control | T/C [13]: 103 % of control

CCCCCCCC(=O)/C=C/Sc1n[nH]c(=O)[nH]c1=O
T/C (endpoint: mean survival time, dose: 12.5 mg/kg/injection, schedule: Q01DX005 (ip), vehicle: distilled water + Tween-80): 94 % of control | T/C (endpoint: mean survival time, dose: 25.0 mg/kg/injection, schedule: Q01DX005 (ip), vehicle: distilled water + Tween-80): 102 % of control | T/C (endpoint: mean survival time, dose: 50.0 mg/kg/injection, schedule: Q01DX005 (ip), vehicle: distilled water + Tween-80): 107 % of control

Cc1[nH]c(=O)c(Br)cc1Br
T/C [7]: 98 % of control | T/C [10]: 101 % of control | T/C [13]: 101 % of control
